# According to the kinase profiling compilation of Christmann-Franck et al. (2016):
# What was measured:
# Details in all cases: compound 10.0 µM
# [1] = molecular target: IRAK4 (human) (UniProt Q9NWZ3)
# [2] = molecular target: SLK (human) (UniProt Q9H2G2)
# [3] = molecular target: ADCK3 (human) (UniProt Q8NI60)
# [4] = molecular target: MAP2K5 (human) (UniProt Q13163)
# [5] = molecular target: EIF2AK1 (human) (UniProt Q9BQI3)
# [6] = molecular target: ROS1 (human) (UniProt P08922)
# [7] = molecular target: IKBKE (human) (UniProt Q14164)
# [8] = molecular target: NUAK1 (human) (UniProt O60285)
# [9] = molecular target: MAP3K2 (human) (UniProt Q9Y2U5)
# [10] = molecular target: TGFBR1 (human) (UniProt P36897)
# [11] = molecular target: MAPK14 (human) (UniProt Q16539)
# [12] = molecular target: STK17A (human) (UniProt Q9UEE5)
# [13] = molecular target: EPHB6 (human) (UniProt O15197)
# [14] = molecular target: BMPR1A (human) (UniProt P36894)
# [15] = molecular target: MARK2 (human) (UniProt Q7KZI7)
# [16] = test system: FLT3 (human), P36888 [K663Q]
# [17] = molecular target: RPS6KA4 KD2 (human) (UniProt O75676)
# [18] = molecular target: SGK110 (human) (UniProt P0C264)
# [19] = molecular target: PDGFRB (human) (UniProt P09619)
# [20] = molecular target: ACVR1B (human) (UniProt P36896)
# [21] = molecular target: EPHB2 (human) (UniProt P29323)
# [22] = molecular target: FGFR3 (human) (UniProt P22607)
# [23] = molecular target: FGFR4 (human) (UniProt P22455)
# [24] = molecular target: PIP4K2C (human) (UniProt Q8TBX8)
# [25] = molecular target: DAPK3 (human) (UniProt O43293)
# [26] = molecular target: EPHA7 (human) (UniProt Q15375)
# [27] = molecular target: LRRK2 (human) (UniProt Q5S007)
# [28] = molecular target: LATS2 (human) (UniProt Q9NRM7)
# [29] = test system: FLT3 (human), P36888 [D835H]
# [30] = molecular target: RPS6KA2 KD1 (human) (UniProt Q15349)
# [31] = molecular target: TEK (human) (UniProt Q02763)
# [32] = molecular target: VRK2 (human) (UniProt Q86Y07)
# [33] = molecular target: MAPKAPK5 (human) (UniProt Q8IW41)
# [34] = molecular target: CDK7 (human) (UniProt P50613)
# [35] = molecular target: TAOK3 (human) (UniProt Q9H2K8)
# [36] = molecular target: MARK4 (human) (UniProt Q96L34)
# [37] = molecular target: MAPK6 (human) (UniProt Q16659)
# [38] = molecular target: MYO3A (human) (UniProt Q8NEV4)
# [39] = test system: RET (human), P07949 [V804L]
# [40] = molecular target: BMPR2 (human) (UniProt Q13873)
# [41] = test system: KIT (human), P10721 [V559D/T670I]
# Chain of TAOK3 (human) (Q9H2K8 whole entry, looked up): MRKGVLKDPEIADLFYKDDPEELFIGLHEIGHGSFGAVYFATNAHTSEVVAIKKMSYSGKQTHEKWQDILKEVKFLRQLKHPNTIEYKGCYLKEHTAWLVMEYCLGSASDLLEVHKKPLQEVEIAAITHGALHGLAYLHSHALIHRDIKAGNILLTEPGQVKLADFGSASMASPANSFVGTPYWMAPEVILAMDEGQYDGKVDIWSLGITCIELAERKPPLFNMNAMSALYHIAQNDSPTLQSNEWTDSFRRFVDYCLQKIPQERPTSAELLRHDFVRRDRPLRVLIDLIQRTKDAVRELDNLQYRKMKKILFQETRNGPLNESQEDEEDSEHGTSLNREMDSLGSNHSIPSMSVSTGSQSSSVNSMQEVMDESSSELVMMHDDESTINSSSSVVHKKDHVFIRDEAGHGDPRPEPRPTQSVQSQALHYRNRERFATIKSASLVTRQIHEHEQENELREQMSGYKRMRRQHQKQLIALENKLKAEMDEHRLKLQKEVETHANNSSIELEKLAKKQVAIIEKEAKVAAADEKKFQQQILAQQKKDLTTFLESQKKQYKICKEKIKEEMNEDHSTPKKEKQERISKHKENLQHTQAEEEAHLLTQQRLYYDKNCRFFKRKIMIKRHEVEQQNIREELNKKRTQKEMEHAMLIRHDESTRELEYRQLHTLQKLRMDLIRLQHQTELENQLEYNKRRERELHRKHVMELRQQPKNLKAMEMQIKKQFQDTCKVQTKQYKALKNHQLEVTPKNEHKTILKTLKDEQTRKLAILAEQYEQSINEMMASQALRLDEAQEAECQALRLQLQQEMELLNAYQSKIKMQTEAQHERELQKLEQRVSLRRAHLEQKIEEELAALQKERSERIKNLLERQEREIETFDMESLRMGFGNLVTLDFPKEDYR
# Chain of RET (human), P07949 [V804L] (P07949 whole entry V804L, looked up): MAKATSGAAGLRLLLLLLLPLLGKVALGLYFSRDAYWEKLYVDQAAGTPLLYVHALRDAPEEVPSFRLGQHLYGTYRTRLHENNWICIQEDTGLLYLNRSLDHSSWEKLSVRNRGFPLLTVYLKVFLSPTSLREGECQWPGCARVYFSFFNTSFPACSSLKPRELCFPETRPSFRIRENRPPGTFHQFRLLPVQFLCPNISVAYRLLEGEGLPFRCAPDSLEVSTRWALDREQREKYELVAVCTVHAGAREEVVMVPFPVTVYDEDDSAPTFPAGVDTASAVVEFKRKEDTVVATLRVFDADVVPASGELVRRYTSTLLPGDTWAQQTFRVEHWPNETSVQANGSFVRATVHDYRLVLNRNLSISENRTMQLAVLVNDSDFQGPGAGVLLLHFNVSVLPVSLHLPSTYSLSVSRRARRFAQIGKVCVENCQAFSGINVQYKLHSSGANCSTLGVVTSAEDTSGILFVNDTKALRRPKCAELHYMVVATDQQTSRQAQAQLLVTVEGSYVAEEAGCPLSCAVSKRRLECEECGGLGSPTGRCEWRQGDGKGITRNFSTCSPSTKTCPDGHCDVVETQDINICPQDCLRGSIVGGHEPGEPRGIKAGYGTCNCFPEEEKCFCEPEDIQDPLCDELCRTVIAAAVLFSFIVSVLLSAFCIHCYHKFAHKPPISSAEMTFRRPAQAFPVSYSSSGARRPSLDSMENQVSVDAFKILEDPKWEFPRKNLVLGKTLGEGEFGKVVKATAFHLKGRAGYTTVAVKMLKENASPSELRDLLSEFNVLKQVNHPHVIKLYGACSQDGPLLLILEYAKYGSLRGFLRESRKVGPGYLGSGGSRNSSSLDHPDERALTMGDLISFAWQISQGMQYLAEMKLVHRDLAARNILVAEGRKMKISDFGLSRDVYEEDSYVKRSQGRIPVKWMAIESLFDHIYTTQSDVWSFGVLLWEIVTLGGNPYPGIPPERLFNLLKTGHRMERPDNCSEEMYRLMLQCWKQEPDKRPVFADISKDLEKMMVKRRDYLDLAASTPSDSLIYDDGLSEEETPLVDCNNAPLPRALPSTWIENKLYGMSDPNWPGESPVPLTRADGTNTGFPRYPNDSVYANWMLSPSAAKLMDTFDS
# Chain of SLK (human) (Q9H2G2 whole entry, looked up): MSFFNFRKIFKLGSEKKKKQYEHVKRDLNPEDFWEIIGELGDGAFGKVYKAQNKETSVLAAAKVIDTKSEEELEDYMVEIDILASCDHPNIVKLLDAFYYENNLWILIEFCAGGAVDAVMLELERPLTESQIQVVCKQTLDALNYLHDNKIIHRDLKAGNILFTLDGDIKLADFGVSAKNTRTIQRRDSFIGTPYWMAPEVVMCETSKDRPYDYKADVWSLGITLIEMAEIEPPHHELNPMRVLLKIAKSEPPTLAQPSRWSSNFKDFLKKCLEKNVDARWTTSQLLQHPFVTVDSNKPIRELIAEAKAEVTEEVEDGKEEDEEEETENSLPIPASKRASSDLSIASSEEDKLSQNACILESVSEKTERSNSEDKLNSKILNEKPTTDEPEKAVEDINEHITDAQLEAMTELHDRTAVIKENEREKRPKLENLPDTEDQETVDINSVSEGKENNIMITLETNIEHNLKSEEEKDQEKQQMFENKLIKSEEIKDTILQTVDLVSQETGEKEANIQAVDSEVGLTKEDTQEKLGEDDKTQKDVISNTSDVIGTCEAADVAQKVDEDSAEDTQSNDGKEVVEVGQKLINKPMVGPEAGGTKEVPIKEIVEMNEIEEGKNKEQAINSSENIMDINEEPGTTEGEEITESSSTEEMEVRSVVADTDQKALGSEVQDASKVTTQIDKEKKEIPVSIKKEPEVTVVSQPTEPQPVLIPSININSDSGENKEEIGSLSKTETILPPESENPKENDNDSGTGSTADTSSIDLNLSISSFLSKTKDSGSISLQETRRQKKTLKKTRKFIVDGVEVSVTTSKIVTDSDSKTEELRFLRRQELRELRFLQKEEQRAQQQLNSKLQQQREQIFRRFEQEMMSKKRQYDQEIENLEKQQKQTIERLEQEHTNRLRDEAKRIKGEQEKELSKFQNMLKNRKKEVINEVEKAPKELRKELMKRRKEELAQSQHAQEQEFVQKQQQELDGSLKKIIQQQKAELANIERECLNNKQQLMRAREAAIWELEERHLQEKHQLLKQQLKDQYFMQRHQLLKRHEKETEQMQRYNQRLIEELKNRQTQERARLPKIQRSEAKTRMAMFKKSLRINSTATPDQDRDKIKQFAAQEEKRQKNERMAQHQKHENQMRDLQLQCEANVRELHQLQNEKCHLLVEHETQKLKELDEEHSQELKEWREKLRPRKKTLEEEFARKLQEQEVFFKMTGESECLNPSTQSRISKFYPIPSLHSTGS
# Chain of MAP3K2 (human) (Q9Y2U5 whole entry, looked up): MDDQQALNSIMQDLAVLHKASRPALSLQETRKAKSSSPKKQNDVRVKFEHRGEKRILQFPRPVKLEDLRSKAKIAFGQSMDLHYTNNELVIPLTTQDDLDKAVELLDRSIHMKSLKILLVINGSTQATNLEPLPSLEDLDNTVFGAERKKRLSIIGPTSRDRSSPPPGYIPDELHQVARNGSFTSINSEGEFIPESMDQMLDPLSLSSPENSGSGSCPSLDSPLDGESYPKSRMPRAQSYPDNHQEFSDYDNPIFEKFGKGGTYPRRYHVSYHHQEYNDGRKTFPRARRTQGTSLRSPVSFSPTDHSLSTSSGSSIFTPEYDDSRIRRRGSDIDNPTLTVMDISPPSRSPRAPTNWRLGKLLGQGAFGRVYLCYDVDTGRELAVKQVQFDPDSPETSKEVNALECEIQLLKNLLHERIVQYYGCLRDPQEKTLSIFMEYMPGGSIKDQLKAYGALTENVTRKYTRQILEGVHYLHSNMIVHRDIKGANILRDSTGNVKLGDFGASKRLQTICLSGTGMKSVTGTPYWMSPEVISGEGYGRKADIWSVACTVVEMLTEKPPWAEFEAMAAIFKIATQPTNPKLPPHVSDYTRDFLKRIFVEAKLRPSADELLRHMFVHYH
# Chain of EPHB6 (human) (O15197 whole entry, looked up): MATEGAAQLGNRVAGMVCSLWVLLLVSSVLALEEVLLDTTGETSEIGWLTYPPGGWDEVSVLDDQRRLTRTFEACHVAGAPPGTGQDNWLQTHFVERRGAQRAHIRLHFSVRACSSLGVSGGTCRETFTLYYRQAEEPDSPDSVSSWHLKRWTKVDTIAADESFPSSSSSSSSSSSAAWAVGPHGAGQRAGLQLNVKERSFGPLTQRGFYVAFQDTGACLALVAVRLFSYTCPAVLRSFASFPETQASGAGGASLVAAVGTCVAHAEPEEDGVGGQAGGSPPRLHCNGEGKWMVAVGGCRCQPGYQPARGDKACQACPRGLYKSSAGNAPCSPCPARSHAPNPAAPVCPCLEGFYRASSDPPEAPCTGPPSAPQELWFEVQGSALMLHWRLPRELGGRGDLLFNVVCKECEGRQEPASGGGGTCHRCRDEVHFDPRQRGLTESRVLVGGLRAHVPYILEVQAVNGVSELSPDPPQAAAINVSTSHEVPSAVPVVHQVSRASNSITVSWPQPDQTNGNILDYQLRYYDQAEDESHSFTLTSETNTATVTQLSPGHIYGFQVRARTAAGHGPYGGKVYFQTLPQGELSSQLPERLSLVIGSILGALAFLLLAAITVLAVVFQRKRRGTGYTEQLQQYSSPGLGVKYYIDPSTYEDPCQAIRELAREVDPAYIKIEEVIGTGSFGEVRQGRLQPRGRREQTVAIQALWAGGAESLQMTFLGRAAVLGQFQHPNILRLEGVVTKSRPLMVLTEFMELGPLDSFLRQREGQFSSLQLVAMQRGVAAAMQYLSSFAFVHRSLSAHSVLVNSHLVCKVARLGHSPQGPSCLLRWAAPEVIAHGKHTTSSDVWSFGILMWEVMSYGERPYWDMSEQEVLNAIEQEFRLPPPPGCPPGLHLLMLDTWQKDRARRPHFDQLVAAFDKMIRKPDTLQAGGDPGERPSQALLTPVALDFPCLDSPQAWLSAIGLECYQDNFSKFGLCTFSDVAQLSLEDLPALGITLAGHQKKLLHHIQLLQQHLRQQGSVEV
compound,measurement,setting,value
CNC(=O)c1cc(Oc2ccc(NC(=O)Nc3ccc(Cl)c(C(F)(F)F)c3)cc2)cc[n+]1[O-],per cent of control,[1],100%
same,per cent of control,[2],9.4%
same,per cent of control,[3],86%
same,per cent of control,[4],0.1%
same,per cent of control,[5],100%
same,per cent of control,[6],73%
same,per cent of control,[7],100%
same,per cent of control,[8],100%
same,per cent of control,[9],100%
same,per cent of control,[10],100%
same,per cent of control,[11],0%
same,per cent of control,[12],66%
same,per cent of control,[13],1.8%
same,per cent of control,[14],91%
same,per cent of control,[15],87%
same,per cent of control,[16],0.2%
same,per cent of control,[17],98%
same,per cent of control,[18],100%
same,per cent of control,[19],0%
same,per cent of control,[20],44%
same,per cent of control,[21],19%
same,per cent of control,[22],32%
same,per cent of control,[23],39%
same,per cent of control,[24],16%
same,per cent of control,[25],100%
same,per cent of control,[26],33%
same,per cent of control,[27],80%
same,per cent of control,[28],100%
same,per cent of control,[29],0.7%
same,per cent of control,[30],43%
same,per cent of control,[31],3.5%
same,per cent of control,[32],100%
same,per cent of control,[33],100%
same,per cent of control,[34],5%
same,per cent of control,[35],0.4%
same,per cent of control,[36],100%
same,per cent of control,[37],100%
same,per cent of control,[38],14%
same,per cent of control,[39],0%
same,per cent of control,[40],98%
same,per cent of control,[41],0%
CNC(=O)c1cc(Oc2ccc(NC(=O)Nc3ccc(Cl)c(C(F)(F)F)c3)cc2)ccn1,per cent of control,[1],100%
same,per cent of control,[2],9.2%
same,per cent of control,[3],90%
same,per cent of control,[4],0.35%
same,per cent of control,[5],100%
same,per cent of control,[6],79%
same,per cent of control,[7],100%
same,per cent of control,[8],74%
same,per cent of control,[9],100%
same,per cent of control,[10],100%
same,per cent of control,[11],0.1%
same,per cent of control,[12],58%
same,per cent of control,[13],2.4%
same,per cent of control,[14],100%
same,per cent of control,[15],67%
same,per cent of control,[16],0.25%
same,per cent of control,[17],100%
same,per cent of control,[18],91%
same,per cent of control,[19],0%
same,per cent of control,[20],56%
same,per cent of control,[21],12%
same,per cent of control,[22],20%
same,per cent of control,[23],43%
same,per cent of control,[24],34%
same,per cent of control,[25],94%
same,per cent of control,[26],7.6%
same,per cent of control,[27],86%
same,per cent of control,[28],100%
same,per cent of control,[29],0.45%
same,per cent of control,[30],61%
same,per cent of control,[31],2.8%
same,per cent of control,[32],100%
same,per cent of control,[33],100%
same,per cent of control,[34],3.2%
same,per cent of control,[35],0.65%
same,per cent of control,[36],93%
same,per cent of control,[37],94%
same,per cent of control,[38],44%
same,per cent of control,[39],0%
same,per cent of control,[40],100%
same,per cent of control,[41],0%
